Assay results taken from patent US20050191668A1, “Methods of using peroxisome proliferator-activated receptor alpha target genes” (priority 2004, published 2005).

Tests used:
Format in all cases: cell-based, human
Pa9 gene [1] = test: Pa9 gene expression by real-time RT-PCR in HuH7 hepatocytes; conditions: for Pa9 (W38098) gene expression, Percentage ± SE (%): HuH7 hepatocytes, about 20-24 h, vehicle control = 100
From the text: (§1) Human hepatocyte HuH7 cells, which are epithelial cells of liver, were obtained from Japan Health Science Research Resources Bank (Osaka, Japan). Human primary adipocytes, which are connective tissue cells specialized for the synthesis and storage of fat, were obtained from Zen-Bio, Inc (Research Triangle Park, NC). Human primary skeletal muscle cells (SKMC) were obtained from Cambrex Bio Science (Walkersville, Md.). PPARα agonists, Wy14643 (Agatha, et al, 2000, Archives of Biochemistry and Biophysics 380:353-359) and fenofibrates were obtained from Cayman Chemical (Ann Arbor, Mich.) and Sigma (St Louis, Mo.), respectively.
(§2) Human HuH7 cells were cultured in Dulbecco's Modified Eagle Medium with 10% Fetal Bovine Serum (Gibco, N.Y.). Cells were treated with charcoal-stripped, delipidated calf serum (5%) (Sigma, St Louis, Mo.) for about 4-18 hours. Then, cells were treated with different concentrations of PPARα agonist (Wy14643 or fenofibrates) for about 20-24 h. Human SKM cells were cultured in Skeletal Muscle Growth Medium (Cambrex Bio Science, Walkersville, Md.), and were treated with different concentrations of PPARα agonist (Wy14643 or fenofibrates) for about 18-20 hours. Human primary adipocytes were cultured in Preadipocyte Medium, (Cat #PM—1, Zen-Bio, Inc., Research Triangle Park, NC), and were treated with different concentrations of PPARα agonist (Wy14643 or fenofibrates) for about 18-20 hours.
(§3) Total RNA was purified from cultured cells following the protocol provided by the manufacturer (Trizon method, Invitrogen Inc. Ca). The polymerase chain reaction (PCR) primers and fluorescent probes (TagMan probes) for Pa9, Pa13, and Pa21 were designed from GenBank sequences of accession numbers W30988, AB000584, and NM_080725, respectively. The primers and probes were designed using the software PrimerDesign (Applied Biosystems, Foster City, Calif.). The PCR primers for Pa9 were SEQ ID NO: 7, (5-[…]) and SEQ ID NO: 8 (5-[…]). […] The PCR primers for Pa13 were SEQ ID NO: 10 (5-[…], T) and SEQ ID NO: 11 (5-[…] T). […] The PCR primers for Pa21 were SEQ ID NO: 13 (5-[…] C) and SEQ ID NO: 14 (5-[…]). […] All primers and probes were synthesized by Keystone Labs (Camarillo, Calif.).
(§4) Reverse transcription (RT) and PCR were conducted in one step using “One-Step RT-PCR Master Mix Reagent” kit (Applied Biosystems, Foster City, Calif.) in ABI PRISM 7700 Sequence Detection System (Applied Biosystems). Each reaction was performed in a total volume of 25 μl containing 40 ng of total RNA. The reaction condition was: 48° C. for 30 minutes, 60° C. for 30 minutes, 94° C. for 5 minutes, followed by 40 cycles of 94° C. for 20 seconds and 60° C. for 1 minute. The primers for 18S ribosomal RNA were developed and provided by Applied Biosystems. The measurement of human 18S ribosomal RNA was used as an internal control for normalization of measuring and loading errors. PCR data were collected by Ct value (the cycle number at which logarithmic PCR plots cross a calculated threshold line) according to the manufacturer's guidelines and the value was used to determine the Δ^Ct (Ct of the target gene minus the Ct of 18S ribosomal RNA controls). Relative mRNA level was calculated using the equation 2^−ΔΔCt as described previously (Heid et al., 1996, Genome Res. 6:986-994).

Pa21 gene [2] = test: Pa21 gene expression by real-time RT-PCR in HuH7 hepatocytes; conditions: about 20-24 h, vehicle control = 100
From the text: as §1, §2, §3, §4

Pa13 gene = Pa13 gene expression by real-time RT-PCR in primary adipocytes; conditions: about 18-20 hours, vehicle control = 100
From the text: as §1, §2, §3, §4

Pa21 gene [3] = test: Pa21 gene expression by real-time RT-PCR in primary adipocytes; conditions: about 18-20 hours, vehicle control = 100
From the text: as §1, §2, §3, §4

Pa9 gene [4] = test: Pa9 gene expression in SKM cells with or without siRNA-reduced PPARα expression
From the text: (§5) SiRNA oligos specific to PPARα were designed and used to knock-down or reduce the expression level of PPARα in human SKMU cells following procedures known to those skilled in the art (Brummelkamp et al., 2002, Science, 296: 550-553). Four sets of siRNA oligo were originally designed using GenBank accession number S74349 (human peroxisome proliferator activated receptor alpha, cDNA; PPARα) as the template, and the software, Target Finder (Ambion, Austin, Tex.). […] The sequences for the two sets of siRNA correspond to 907 bp to 927 bp (SEQ ID NO: 21, 5′-[…] A) and 1106 bp to 1126 bp of the cDNA (SEQ ID NO: 22, 5′-[…] T) relative to the first nucleotide of the start codon. The oligos were chemically synthesized by Ambion Inc. (Austin, Tex.). The universal negative control siRNA oligo was purchased from Ambion.
Human primary skeletal muscle cells (hSKM, provided by Cambrex, Md.) were prepared the day before transfection at the density of 4.67×10^4 cells/per 60 mm dish (about 20% confluence). The cells were cultured at 37° C., 5% CO2 for 24 hrs with antibiotics-free SKGM medium (Cambrex, Md.).
Transfection of siRNAs into the cultured cells was carried out following the manufacturer's instruction. Briefly, before the transfection, siPORT Amine (Ambion, Tex.) was first diluted with SKGM medium free of antibiotics and serum (10 μl siPORT/ml), followed by adding siRNA (50 nM) into the mixture. SKM cells (prepared in advance in multiple dishes) were transfected with 2 ml of the mixture for 4 hrs. Additional 8 ml of fresh SKGM medium (without antibiotics) were added into each dish to maximize cell growth and reduce potential cytotoxicity caused by the transfection reagent. As controls, the cells were also transfected with siPORT Amine alone or siPORT Amine plus universal negative control siRNA.
(§6) Again, total RNA was isolated from the cells and real-time PCR was performed and the expression levels of target genes of interest, such as Pa9, 13 and 21, were quantitatively measured using the RT-PCR technique described in Example 1.

Pa21 gene [5] = test: Pa21 gene expression in SKM cells with siRNA-reduced PPARα expression; conditions: SKMU cells with reduced PPARα expression
From the text: as §5
Human primary skeletal muscle cells (hSKM, provided by Cambrex, Md.) were prepared the day before transfection at the density of 4.67×10^4 cells/per 60 mm dish (about 20% confluence). The cells were cultured at 37° C., 5% CO2 for 24 hrs with antibiotics-free SKGM medium (Cambrex, Md.). […]
as §6

Compound: Cc1cccc(Nc2cc(Cl)nc(SCC(=O)O)n2)c1C [Wy14643]
- Pa9 (W38098) gene expression, Percentage ± SE (%) (Pa9 gene [1]; 3 uM): 90 ± 17%
- Pa9 (W38098) gene expression, Percentage ± SE (%) (Pa9 gene [1]; 10 uM): 190 ± 62.1%
- Pa9 (W38098) gene expression, Percentage ± SE (%) (Pa9 gene [1]; 30 uM): 200 ± 48%
- Pa9 (W38098) gene expression, Percentage ± SE (%) (Pa9 gene [1]; 100 uM): 540 ± 57.8%
- Pa9 (W38098) gene expression, Percentage ± SE (%) (Pa9 gene [1]; 300 uM): 690 ± 42.8%
- gene expression of Pa9, Pa13, or Pa21 (statement in words) (Pa9 gene [1]; human HuH7 cells, primary SKMU cells, or primary adipocytes (Tables 1-3)): increased gene expression
- Pa21 (H4960) gene expression, Percentage ± SE (%) (Pa21 gene [2]; 3 uM): 145.5 ± 21.9%
- Pa21 (H4960) gene expression, Percentage ± SE (%) (Pa21 gene [2]; 10 uM): 163.6 ± 35%
- Pa21 (H4960) gene expression, Percentage ± SE (%) (Pa21 gene [2]; 30 uM): 372.7 ± 17.8%
- Pa21 (H4960) gene expression, Percentage ± SE (%) (Pa21 gene [2]; 100 uM): 227.3 ± 14.8%
- Pa21 (H4960) gene expression, Percentage ± SE (%) (Pa21 gene [2]; 300 uM): 481.8 ± 12.1%
- Pa13 (N26311) gene expression, Percentage ± SE (%) (Pa13 gene; 10 uM): 56 ± 10%
- Pa13 (N26311) gene expression, Percentage ± SE (%) (Pa13 gene; 50 uM): 55 ± 2%
- Pa13 (N26311) gene expression, Percentage ± SE (%) (Pa13 gene; 250 uM): 214 ± 7.9%
- Pa21 (H4960) gene expression, Percentage ± SE (%) (Pa21 gene [3]; 10 uM): 92 ± 10%
- Pa21 (H4960) gene expression, Percentage ± SE (%) (Pa21 gene [3]; 50 uM): 108 ± 2%
- Pa21 (H4960) gene expression, Percentage ± SE (%) (Pa21 gene [3]; 250 uM): 314 ± 2.5%
- increase of Pa9 gene expression (Pa9 gene [4]; SKM cells with reduced gene expression of PPARα (siRNA), 16 hrs treatment): 2.35 fold
- induction of Pa9 gene expression (Pa9 gene [4]; SKM cells without reduced expression level of PPARα, 16 hrs treatment): 33.48 fold
- induction of Pa9 gene expression (FIG. 5) (Pa9 gene [4]; SKMU cells with reduced PPARα expression): decreased induction
- induction of Pa21 gene expression (FIG. 7) (Pa21 gene [5]): no detectable induction
